Structures are written as SMILES. Where only a bound is given, the exact number is not on record here.

The term IC50 denotes the concentration that gives 50% inhibition. Broadly, the EC50 is the concentration at which the effect is half-maximal.

Assay [1] concerns the target T1, HSP90a protein (Homo sapiens, UniProt P07900).
T1 construct: purchased BPS Bioscience 50298
Put plainly: HSP90α-binding fluorescent polarization (FP) assay, BODIPY-labeled RNK04010 probe. The note with it: FP competition with RNK04010 (BODIPY-labeled), 5 nM, 300 min at 25° C. In a few lines:
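Displacement of a 5 nM fluorescent HSP90 ligand from the N-terminal HSP90a domain by FP. Incubation ran at 25° C: 120 min for the FITC-geldanamycin tracer, 300 min for the BODIPY-conjugated triazolone RNK04010.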

Assay [2] concerns NCI-H358 human non-small cell lung cancer. The experiment in a line: NCI-H358 CCK-8 proliferation assay. It counts as cell-based. The note with it: NCI-H358 cells, 72 hr. On the procedure: The following cancer cell lines were employed: BT-474 human breast carcinoma (ATCC, #HTB-20); MIA PaCa-2 human pancreatic carcinoma [2 copies KRAS(G12C)](ATCC, #CRL-1420); NCI-H23 human non-small cell lung cancer [1 copy KRAS(G12C)](ATCC, #CRL-5800); NCI-H358 human non-small cell lung cancer [1 copy KRAS(G12C)](ATCC, #CRL-5807); LU65A human lung carcinoma (Pharmaron, Beijing, China). Cell lines were cultured essentially according to ATCC and Pharmaron recommendations.
Cancer Cell Line Proliferation (CCK-8) Assays
3-fold serial dilutions of each test compound were prepared ranging from 20 μM to 1.02 nM.
% Inhibition=100−(D−B)/(S−B)*100%. • S: Absorbance of cells treated with DMSO • D: Absorbance of compound-treated cells • B: Absorbance of medium with DMSO without cells
(Tetrazolium assays rely on reduction of a dye to a coloured formazan, in cell work by metabolically active cells.)

For the molecule `C=CC(=O)N1CCN(c2nc(NCCC(=O)NCCc3ccc(-n4c(O)nnc4-c4cc(C(C)C)c(O)cc4O)cc3)nc3c2CCN(c2cccc4ccccc24)C3)C[C@H]1CC#N` [Compound 85, (R)-3-((4-(4-acryloyl-3-(cyanomethyl)piperazin-1-yl)-7-(naphthalen-1-yl)-5,6,7,8-tetrahydropyrido[3,4-d]pyrimidin-2-yl)amino)-N-(4-(3-(2,4-dihydroxy-5-isopropylphenyl)-5-hydroxy-4H-1,2,4-triazol-4-yl)phenethyl)propanamide, trifluoroacetic acid], in assay [1], the IC50 lay in the range of 0.1 to 1 µM. Further, the EC50 in assay [2] was > 1 µM.

For `CCC(=O)N1CCN(c2nc(NCCC(=O)NCc3ccc(-n4c(O)nnc4-c4cc(CC)c(O)cc4O)cc3C(F)(F)F)nc3c2CCN(c2cc(O)cc4ccccc24)C3)CC1` [Compound 45, N-(4-(3-(5-ethyl-2,4-dihydroxyphenyl)-5-hydroxy-4H-1,2,4-triazol-4-yl)-2-(trifluoromethyl)benzyl)-3-((7-(3-hydroxynaphthalen-1-yl)-4-(4-propionylpiperazin-1-yl)-5,6,7,8-tetrahydropyrido[3,4-d]pyrimidin-2-yl)amino)propanamide, trifluoroacetic acid], in assay [1], the IC50 was > 1 µM. In addition, the EC50 in assay [2] is > 1 µM.

On to `C=CC(=O)N1CCN(c2nc(NCCC(=O)NCc3ccc(-n4c(O)nnc4-c4cc(CC)c(O)cc4O)cc3C(F)(F)F)nc3c2CCN(c2cc(O)cc4ccccc24)C3)CC1` [Compound 39, 3-((4-(4-acryloylpiperazin-1-yl)-7-(3-hydroxynaphthalen-1-yl)-5,6,7,8-tetrahydropyrido[3,4-d]pyrimidin-2-yl)amino)-N-(4-(3-(5-ethyl-2,4-dihydroxyphenyl)-5-hydroxy-4H-1,2,4-triazol-4-yl)-2-(trifluoromethyl)benzyl)propanamide, trifluoroacetic acid], for which, in assay [1], the IC50 was > 1 µM. In addition, in assay [2], the EC50 was > 1 µM.

With `CC(=O)N1CCN(c2nc(NCCC(=O)NCCc3ccc(-n4c(O)nnc4-c4cc(C(C)C)c(O)cc4O)cc3)nc3c2CCN(c2cc(O)cc4ccccc24)C3)CC1` [Compound 22, 3-((4-(4-acetylpiperazin-1-yl)-7-(3-hydroxynaphthalen-1-yl)-5,6,7,8-tetrahydropyrido[3,4-d]pyrimidin-2-yl)amino)-N-(4-(3-(2,4-dihydroxy-5-isopropylphenyl)-5-hydroxy-4H-1,2,4-triazol-4-yl)phenethyl)propanamide, trifluoroacetic acid], in assay [1], the IC50 is < 0.1 µM. Besides, the EC50 in assay [2] is > 1 µM.

Regarding `CCc1cc(-c2nnc(O)n2-c2ccc(CNC(=O)CCNc3nc4c(c(N5CCN(C(C)=O)CC5)n3)CCN(c3cc(O)cc5ccccc35)C4)cc2)c(O)cc1O` [Compound 48, 3-((4-(4-acetylpiperazin-1-yl)-7-(3-hydroxynaphthalen-1-yl)-5,6,7,8-tetrahydropyrido[3,4-d]pyrimidin-2-yl)amino)-N-(4-(3-(5-ethyl-2,4-dihydroxyphenyl)-5-hydroxy-4H-1,2,4-triazol-4-yl)benzyl)propanamide, trifluoroacetic acid], the IC50 in assay [1] lay in the range of 0.1 to 1 µM. Further, the EC50 in assay [2] is > 1 µM.

In assay [1], `C=CC(=O)N1CCN(c2nc(NCCC(=O)NCc3ccc(-n4c(O)nnc4-c4cc(C(C)C)c(O)cc4O)cc3F)nc3c2CCN(c2cccc4cccc(Cl)c24)C3)C[C@H]1CC#N` [Compound 97, (R)-3-((4-(4-acryloyl-3-(cyanomethyl)piperazin-1-yl)-7-(8-chloronaphthalen-1-yl)-5,6,7,8-tetrahydropyrido[3,4-d]pyrimidin-2-yl)amino)-N-(4-(3-(2,4-dihydroxy-5-isopropylphenyl)-5-hydroxy-4H-1,2,4-triazol-4-yl)-2-fluorobenzyl)propanamide, trifluoroacetic acid] had an IC50 of 0.1 to 1 µM. Also, the EC50 in assay [2] is > 1 µM.

On to `C=CC(=O)N1CCN(c2nc(NCCC(=O)NCC3CCN(C(=O)C4CCN(Cc5ccc(-n6c(O)nnc6-c6cc(C(C)C)c(O)cc6O)cc5)CC4)CC3)nc3c2CCN(c2cccc4ccccc24)C3)C[C@H]1CC#N` [Compound 101, (R)-3-((4-(4-acryloyl-3-(cyanomethyl)piperazin-1-yl)-7-(naphthalen-1-yl)-5,6,7,8-tetrahydropyrido[3,4-d]pyrimidin-2-yl)amino)-N-((1-(1-(4-(3-(2,4-dihydroxy-5-isopropylphenyl)-5-hydroxy-4H-1,2,4-triazol-4-yl)benzyl)piperidine-4-carbonyl)piperidin-4-yl)methyl)propanamide, trifluoroacetic acid], for which the IC50 in assay [1] is < 0.1 µM. Besides, in assay [2], the EC50 was > 1 µM.

For the molecule `CC(=O)N1CCN(c2nc(NCCC(=O)N3CCC(CN4CCC(Cc5ccc(-n6c(O)nnc6-c6cc(C(C)C)c(O)cc6O)cc5)CC4)CC3)nc3c2CCN(c2cc(O)cc4ccccc24)C3)CC1` [Compound 29, 3-((4-(4-acetylpiperazin-1-yl)-7-(3-hydroxynaphthalen-1-yl)-5,6,7,8-tetrahydropyrido[3,4-d]pyrimidin-2-yl)amino)-1-(4-((4-(4-(3-(2,4-dihydroxy-5-isopropylphenyl)-5-hydroxy-4H-1,2,4-triazol-4-yl)benzyl)piperidin-1-yl)methyl)piperidin-1-yl)propan-1-one, trifluoroacetic acid], the IC50 in assay [1] was 0.1 to 1 µM. Moreover, the EC50 in assay [2] is > 1 µM.

For the molecule `CCC(=O)N1CCN(c2nc(NCCC(=O)N3CCC(Cc4ccc(-n5c(O)nnc5-c5cc(C(C)C)c(O)cc5O)cc4)CC3)nc3c2CCN(c2cc(O)cc4ccccc24)C3)CC1` [Compound 38, 1-(4-(4-(3-(2,4-dihydroxy-5-isopropylphenyl)-5-hydroxy-4H-1,2,4-triazol-4-yl)benzyl)piperidin-1-yl)-3-((7-(3-hydroxynaphthalen-1-yl)-4-(4-propionylpiperazin-1-yl)-5,6,7,8-tetrahydropyrido[3,4-d]pyrimidin-2-yl)amino)propan-1-one, trifluoroacetic acid], the IC50 in assay [1] is 0.1 to 1 µM. For the same molecule, the EC50 in assay [2] was > 1 µM.

Regarding `C=CC(=O)N1CCN(c2nc(NCCC(=O)NCc3ccc(-n4c(O)nnc4-c4ccc(O)cc4O)cc3)nc3c2CCN(c2cccc4ccccc24)C3)C[C@H]1CC#N` [Compound 81], in assay [1], the IC50 is > 1 µM. In addition, the EC50 in assay [2] is > 1 µM.

Take `CCC(=O)N1CCN(c2nc(NCCC(=O)NCc3ccc(-n4c(O)nnc4-c4cc(C(C)C)c(O)cc4O)cc3F)nc3c2CCN(c2cc(O)cc4ccccc24)C3)CC1` [Compound 33, N-(4-(3-(2,4-dihydroxy-5-isopropylphenyl)-5-hydroxy-4H-1,2,4-triazol-4-yl)-2-fluorobenzyl)-3-((7-(3-hydroxynaphthalen-1-yl)-4-(4-propionylpiperazin-1-yl)-5,6,7,8-tetrahydropyrido[3,4-d]pyrimidin-2-yl)amino)propanamide, trifluoroacetic acid]: the IC50 in assay [1] was in the range of 0.1 to 1 µM. For the same molecule, in assay [2], the EC50 was > 1 µM.

For the molecule `CC(=O)N1CCN(c2nc(NCCC(=O)N3CCN(Cc4ccc5c(c4)CN(C(=O)c4cc(C(C)C)c(O)cc4O)C5)CC3)nc3c2CCN(c2cc(O)cc4ccccc24)C3)CC1` [Compound 56, 3-((4-(4-acetylpiperazin-1-yl)-7-(3-hydroxynaphthalen-1-yl)-5,6,7,8-tetrahydropyrido[3,4-d]pyrimidin-2-yl)amino)-1-(4-((2-(2,4-dihydroxy-5-isopropylbenzoyl)isoindolin-5-yl)methyl)piperazin-1-yl)propan-1-one, trifluoroacetic acid], in assay [1], the IC50 was 0.1 to 1 µM. Further, the EC50 in assay [2] was > 1 µM.

Turning to `C=CC(=O)N1CCN(c2nc(NCCC(=O)N3CCN(Cc4ccc5c(c4)CN(C(=O)c4ccc(O)cc4O)C5)CC3)nc3c2CCN(c2cc(O)cc4ccccc24)C3)CC1` [Compound 86, 1-(4-(2-((3-(4-((2-(2,4-dihydroxybenzoyl)isoindolin-5-yl)methyl)piperazin-1-yl)-3-oxopropyl)amino)-7-(3-hydroxynaphthalen-1-yl)-5,6,7,8-tetrahydropyrido[3,4-d]pyrimidin-4-yl)piperazin-1-yl)prop-2-en-1-one, trifluoroacetic acid], the IC50 in assay [1] is > 1 µM. Moreover, the EC50 in assay [2] was > 1 µM.

As to `CC(=O)N1CCN(c2nc(NCCC(=O)N3CCN(Cc4ccc(-n5c(O)nnc5-c5cc(C(C)C)c(O)cc5O)cc4)CC3)nc3c2CCN(c2cc(O)cc4ccccc24)C3)CC1` [Compound 26, 3-((4-(4-acetylpiperazin-1-yl)-7-(3-hydroxynaphthalen-1-yl)-5,6,7,8-tetrahydropyrido[3,4-d]pyrimidin-2-yl)amino)-1-(4-(4-(3-(2,4-dihydroxy-5-isopropylphenyl)-5-hydroxy-4H-1,2,4-triazol-4-yl)benzyl)piperazin-1-yl)propan-1-one, trifluoroacetic acid], the IC50 in assay [1] lay within 0.1 to 1 µM. Further, the EC50 in assay [2] is > 1 µM.

Molecule `C=CC(=O)N1CCN(c2nc(NCCC(=O)NCc3ccc(-n4c(O)nnc4-c4cc(C(C)C)c(O)cc4O)cc3C(F)(F)F)nc3c2CCN(c2cccc4ccccc24)C3)C[C@H]1CC#N` [Compound 82, (R)-3-((4-(4-acryloyl-3-(cyanomethyl)piperazin-1-yl)-7-(naphthalen-1-yl)-5,6,7,8-tetrahydropyrido[3,4-d]pyrimidin-2-yl)amino)-N-(4-(3-(2,4-dihydroxy-5-isopropylphenyl)-5-hydroxy-4H-1,2,4-triazol-4-yl)-2-(trifluoromethyl)benzyl)propanamide, trifluoroacetic acid] gave an IC50 in assay [1] of 0.1 to 1 µM. For the same molecule, the EC50 in assay [2] is > 1 µM.
